Earlier results in patent publication US20240122227A1, “AEROSOLIZABLE MATERIAL” (Nicoventures Trading Limited, priority 2019, published 2024).

Target: CB2 receptor compared to the CB1 receptor (Homo sapiens, UniProt P34972)
Conditions: see Br J Pharmacol. 2001 October; 134(4): 845-852

Sequence of CB2 receptor compared to the CB1 receptor (P34972 whole entry): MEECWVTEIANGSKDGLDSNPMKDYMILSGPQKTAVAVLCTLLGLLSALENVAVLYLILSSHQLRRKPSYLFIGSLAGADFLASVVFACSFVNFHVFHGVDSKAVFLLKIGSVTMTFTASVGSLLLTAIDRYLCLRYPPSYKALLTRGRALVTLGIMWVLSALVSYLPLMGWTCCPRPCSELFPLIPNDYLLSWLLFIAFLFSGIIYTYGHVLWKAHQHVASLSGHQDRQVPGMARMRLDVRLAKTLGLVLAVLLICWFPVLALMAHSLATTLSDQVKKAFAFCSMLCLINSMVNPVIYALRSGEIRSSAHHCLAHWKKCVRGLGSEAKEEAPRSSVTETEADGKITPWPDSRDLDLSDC

| SMILES | selectivity for the CB2 receptor compared to the CB1 receptor |
| --- | --- |
| C=C(C)[C@H]1CCC(C)=C[C@@H]1c1c(O)cc(CCCCC)cc1O [(+)-cannabidiol] | increased selectivity for the CB2 receptor compared to the CB1 receptor |
| C=C(C)[C@@H]1CCC(C)=C[C@H]1c1c(O)cc(CCCCC)cc1O [(−)-cannabidiol] | does not show any selectivity between the two receptors |
